From patent publication US20230391841A1, “MACROCYCLIC PEPTIDES” (Herantis Pharma OYJ, priority 2019, published 2023)
Bridge positions count the residues as written; N and C are the ends. Peptide text beside a SMILES is read from it.

Key:
[1] = In vitro metabolic stability in rat plasma; type: in vitro ADME; settings: 1 μM, 37° C., up to 120 min
Experimental: The linear and macrocyclic compounds 1-14 and 23-26 (SEQ ID NOs: 1-14 and 23-26) were incubated in concentration 1 μM with rat plasma (Sprague-Dawley, male; 400 μl) for different time points (0, 20, 40, 60 or 120 min) at 37° C. The incubation was terminated by acetonitrile. The collected samples were centrifuged for 20 min at 2272×g and analyzed. io Stock solutions were prepared using 50% DMSO, and the compounds were spiked 1/100 to incubation to have final DMSO content of 0.5%. The samples were analyzed by UHPLC/PDA with high resolution mass spectrometry (QE-Orbitrap-MS on DDI mode) to monitor disappearance of the compound. Enalapril 1 μM was used as a disappearance rate control. For analysis of compounds 9, 10, 13 and 14 stock solutions were prepared with PBS, and samples were analyzed by UHPLC-ToF mass spectrometry. The analytical method was optimized by using the parent compounds for optimum chromatographic properties (peak shape and retention) and mass spectrometric ionization. The ion chromatograms were extracted from the total ion chromatograms using calculated monoisotopic accurate masses with 5 mDa window. Disappearance was based on LC/MS peak areas, marking 0 min as 100%.
The first-order rate constants k (min-1) of the metabolism were obtained from the slope of time versus logarithm (% of remaining compound) plot using Excel software. The in vitro half-life (t1/2) of study compound is defined as: t1/2=In2/k. Calculated half-life is based on compound disappearance from rat plasma.

rat hepatocytes = assay: In vitro metabolic stability in rat hepatocytes; type: in vitro ADME; settings: 1 μM, 37° C., up to 60 min
Experimental: The linear or macrocyclic compounds 1-14 and 23-26 (SEQ ID NOs: […]) were incubated in concentration 1 μM with pooled cryopreserved rat hepatocytes (Sprague-Dawley, male; 400 pl, 1.0 million viable cells/ml for compounds 1-8, 11-12 and 23-26 or 100 μl, 0.1 million viable cells/ml for compounds 9-10 and 13-14) for different time points (0, 10, 20, 40 or 60 min) at 37° C. The cell density and viability were determined by trypan blue exclusion method. The incubation was terminated by acetonitrile. The collected samples were centrifuged for 20 min at 2272×g and analyzed. The samples were analyzed is by UHPLC/PDA with high resolution mass spectrometry (QE-Orbitrap-MS on DDI mode) (compounds 1-8, 11-12 and 23-26) or HHPLC-ToF mass spectrometry (for compounds 9-and 13-14) to monitor disappearance of the compound. Verapramil 1 μM was used as a disappearance rate control. The analytical method was optimized by using the parent compounds for optimum chromatographic properties (peak shape and retention) and mass spectrometric ionization. The Ion chromatograms were extracted from the total ion chromatograms using calculated monoisotopic accurate masses with 5 mDa window. Disappearance was based on LC/MS peak areas, marking 0 min as 100%. The first-order rate constants k (min-1) of the metabolism were obtained from the slope of time versus logarithm (% of remaining compound) plot using Excel software. The in vitro half-life (t1/2) of study compound is defined as: t1/2In2/k. Calculated half-life is based on compound disappearance in rat liver hepatocytes.

human hepatocytes = assay: In vitro metabolic stability in human hepatocytes; type: in vitro ADME; settings: 1 μM, 37° C., up to 60 min
Experimental: The linear or macrocyclic compounds 1-8, 11-14 and 23-26 (SEQ ID NOs: 1-8, 11-14 and 23-26) were incubated in concentration 1 μM with pooled cryopreserved human hepatocytes (mixed gender; 400 pl, 1.0 million viable cells/ml) for different time points (0, 20, 40 or 60 min) at 37° C. The cell density and viability were determined by trypan blue is exclusion method. The incubation was terminated by acetonitrile. The collected samples were centrifuged for 20 min at 2272×g and analyzed. The samples were analyzed by UPLC/PDA with high resolution mass spectrometry (QE-Orbitrap-MS on DDI mode) to monitor disappearance of the compound. Verapramil 1 μM was used as a disappearance rate control. The analytical method was optimized by using the parent compounds for optimum chromatographic properties (peak shape and retention) and mass spectrometric ionization. The Ion chromatograms were extracted from the total ion chromatograms using calculated monoisotopic accurate masses with 5 mDa window. Disappearance was based on LC/MS peak areas, marking 0 min as 100%. The first-order rate constants k (min-1) of the metabolism were obtained from the slope of time versus logarithm (% of remaining compound) plot using Excel software. The in vitro half-life (t1/2) of study compound is defined as: t1/2In2/k. Calculated half-life is based on compound disappearance in human liver hepatocytes.

[2] = test system: 3D in vitro model of blood-brain barrier; assay: Permeation in a 3D in vitro model of blood-brain barrier; type: in vitro ADME, human endothelial cells, rat astrocytes and cortical neurons; settings: 500 nM, 2 h
Experimental: Due to the interest of developing CDNF- and MANF-derived peptides for treatment of CNS diseases with peripheral route of administration, and the fact that macrocyclization can improve cell-penetration and distribution properties of peptides, the ability of the compounds to pass the blood-brain barrier was tested in an established in vitro model of the blood-brain barrier. For this purpose, macrocyclic and linear compounds were incubated at 500 nM for 2 h in a two-compartment in vitro blood-brain barrier model (n=4) followed by sample collection is and LC-MS/MS analysis.
Primary culture of astrocytes. Rat astrocytes were prepared from a E15 embryos. Briefly, pregnant female rats (Wistar, Janvier Labs) of 15 days of gestation were deeply anesthetized in a (CO2 chamber) and then killed by cervical dislocation. Fetuses were collected and immediately placed in ice-cold L15 Leibovitz medium with a 2% penicillin (10,000 U/mL) and streptomycin (10 mg/mL) solution (PS) and 1% bovine serum albumin (BSA). Full brains were treated for 20 min at 37° C. with a trypsin- EDTA solution at a final concentration of 0.05% trypsin and 0.02% EDTA. Dissociated cells were cultured in DMEM 10% fetal calf serum. Purified astrocytes were used at passage 4 (P4).
Culture of human endothelial cells. A vial of HBMEC (Primary Human Brain Microvascular Endothelial Cells, ACBRI 376) was used at a specific passage 8 (P8).
Primary culture of cortical neurons. Rat cortical neurons were cultured as described by Callizot et al., 2013 with modification. Briefly, pregnant female rats (Wistar, Janvier Labs) of […] were deeply anesthetized in a CO2 chamber and then killed by cervical io dislocation. Fetuses were collected and immediately placed in ice-cold L15 Leibovitz medium with a 2% penicillin (10,000 U/mL) and streptomycin (10 mg/mL) solution (PS) and 1% bovine serum albumin (BSA). Cortices were treated for 20 min at 37° C. with a trypsin-EDTA solution at a final concentration of 0.05% trypsin and 0.02% EDTA. The dissociation was stopped by addition of Dulbecco's modified Eagle's medium (DMEM) with 4.5 g/L of glucose, containing is DNAse I grade II (final concentration 0.5 mg/m L) and 10% fetal calf serum (FCS). Cells were mechanically dissociated by three forced passages through the tip of a 10-m1 pipette. Cells were then centrifuged at 515×g for 10 min at 4° C. The pellet resuspended in a defined culture medium consisting of Neurobasal medium with a 2% solution of B27 supplement, 2 mmol/L of L-glutamine, 2% of PS solution, 10 ng/mL of brain-derived neurotrophic factor (BDNF). Viable cells were counted in a Neubauer cytometer, using the trypan blue exclusion test. The cortical neurons were seeded in the bottom of well pre-coated with poly-L-lysine at a density of 255,000 per well in 24-well plate with insert and cultured at 37° C. in an air (95%)-CO2 (5%) incubator. The culture medium was changed every other day.
Co-Culture of endothelial cells, astrocytes and primary cortical neurons. The procedure was performed as previously published (Xue et al., 2013 with modifications, Callizot et al., 2017). Briefly, on day 0, purified astrocytes (P4) were rapidly thawed in a water bath at 37° C. The cells were immediately put in DMEM containing 10% of FCS. Cell suspension was centrifuged at 515×g for 5 min at 4° C. and the pellets were suspended in DMEM F12 containing 10% of FCS. Cells were seeded in the outer side of the insert membrane (PET, 1 μm) at the density of 45,000 cells per insert and cultured at 37° C. in an air (95%)-CO2 (5%) incubator. Thirty-six (36) hours after the astrocytes seeding, HBMEC (P8) were rapidly thawed in a water bath at 37° C. and immediately put in DMEM containing 10% of FCS. Cell suspension was centrifuged at 515×g for 5 min at 4° C. and the pellets were suspended in EGM-2 bullet kit containing 5% of FCS, 1% of PS solution, 1.4 μM of Hydrocortisone, 5 μg/mL of acid ascorbic, 1% of lipid mixture, 10 mM of HEPES, 1 ng/mL of bFGF. […]

With `CC[C@H](C)[C@@H]1NC(=O)[C@H](CCCCN)NC(=O)[C@H](CCCCN)NC(=O)[C@H](CC(C)C)NC(=O)[C@H](CCC(=O)O)NC(=O)[C@H](CCCCN)NC(=O)[C@H](C(C)C)NC(=O)[C@H](CCCNC(=N)N)NC(=O)[C@H](CC(C)C)NC(=O)[C@H](CCCCN)NC(=O)[C@H](CCCCN)NC(=O)[C@H](CC(C)C)NC(=O)[C@H](CC(=O)O)NC(=O)[C@H](C(C)C)NC(=O)[C@H](CCC(=O)O)NC(=O)[C@H](C)NC(=O)[C@@H]2CSSC[C@H](NC(=O)[C@H]([C@@H](C)O)NC(=O)[C@H](CCC(=O)O)NC(=O)CNC(=O)[C@H](Cc3c[nH]c4ccccc34)NC(=O)[C@H](CC(=O)O)NC(=O)[C@H](CC(=O)O)NC(=O)[C@H](CC(C)C)NC1=O)C(=O)N[C@@H](CCCCN)C(=O)NCC(=O)N2` [Compound 4] (cyclo(AEVDLKKLRVKELKKILDDWGETCKGC); disulfide 24-27) the “stability in rat plasma as compared to linear counterpart” value [1] was “improved stability”, the “stability in rat hepatocytes as compared to linear counterpart” value (rat hepatocytes) was “significantly improved stability” and the “stability in human hepatocytes as compared to linear counterpart” value (human hepatocytes) was “significantly improved stability”. The “ability to pass through the in vitro blood-brain barrier as compared to linear counterpart” value [2] was “improved ability to pass”.
